Data published in ChEMBL document CHEMBL1142290, “Synthesis of novel oxazolidinone antimicrobial agents” (2008).
In brackets after ≈: the same amount, converted by molar mass. Activity calls are given as the source filed them. No cut-off for these calls is given here.

Legend:
Staphylococcus aureus = assay: Antimicrobial activity against Staphylococcus aureus ATCC 29213 after 24 hrs; assay type: functional; settings: ATCC 29213, 24 h
Escherichia coli = assay: Antimicrobial activity against Escherichia coli ATCC 25922 upto 100 ug/ml after 24 hrs; assay type: functional, organism-based

MIC (Staphylococcus aureus) | Compound | Activity (Escherichia coli)
> 50 µg/mL | CCCCc1cn(C[C@H]2CN(c3ccc4c(c3)Oc3ccccc3O4)C(=O)O2)nn1 | inactive
2 µg/mL (≈ 5.88 µM) | CC(=O)NC[C@H]1CN(c2ccc3c(c2)Oc2ccccc2O3)C(=O)O1 | –
> 50 µg/mL | O=C1O[C@@H](Cn2ccnn2)CN1c1ccc2c(c1)Oc1ccccc1O2 | inactive
> 50 µg/mL | O=C(O)c1cn(C[C@H]2CN(c3ccc4c(c3)Oc3ccccc3O4)C(=O)O2)nn1 | inactive
